Data: ChEMBL document CHEMBL1201862, “PubChem BioAssay data set” (2004)
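Tested at 5 concentrations; 48 h exposure; 96-well plates; endpoints linearly interpolated, else capped at highest concentration. GI50 marks 50% less growth.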 Calls of active or inactive are those of the source. Cut-off read from the data, not from the text of the source: active = GI50 up to about 1.1 µM and inactive = higher.

How the values were obtained:
Assay in all cases: NCI anticancer screen, dose series, 48 h
[1] = system: A498
[2] = system: HCT-116
[3] = system: A549
[4] = system: OVCAR-8
[5] = system: SN12C
[6] = system: NCI-H460
[7] = system: RXF 393
[8] = system: LXFL 529
[9] = system: SW-620
[10] = system: SK-OV-3
[11] = system: SR
[12] = system: HCC 2998
[13] = system: UACC-62
[14] = system: HOP-92
[15] = system: HOP-62
[16] = system: KM12
[17] = system: Malme-3M

Measured: GI50

COC1=C(OC)CCC(/C(C#N)=C/c2ccc(OC)c(OC)c2)=C1
inactive: [1] > 100 µM | [2] > 100 µM | [3] > 100 µM | [4] > 100 µM | [5] > 100 µM | [6] > 100 µM | [7] 36.7 µM | [8] > 100 µM | [9] > 100 µM | [10] 26.4 µM | [11] 66.7 µM | [12] > 100 µM | [13] > 100 µM | [14] 49.8 µM | [15] 31.1 µM | [16] > 100 µM

Cc1cc2c(=O)c(C)n[nH]c2c(C#N)c1C
inactive: [2] > 100 µM | [3] > 100 µM | [4] > 100 µM | [17] > 100 µM | [5] > 100 µM | [6] > 100 µM | [7] > 100 µM | [8] > 100 µM | [9] > 100 µM | [10] > 100 µM | [11] > 100 µM | [12] > 100 µM | [13] > 100 µM | [14] 29.4 µM | [15] > 100 µM

CO[C@@H]1C=C[C@@]23c4cc5c(cc4CN(C[C@@H]2O)[C@H]3C1)OCO5 [(+)-HAEMANTHAMINE]
inactive: [3] 24 µM | [4] 27.9 µM | [17] 14.6 µM | [5] 16.1 µM | [6] 15.7 µM | [7] 18.7 µM | [8] 13.6 µM | [9] 15.5 µM | [10] 19.5 µM | [11] 15 µM | [12] 15.6 µM | [13] 12.9 µM | [14] 14.3 µM | [16] 13.5 µM

NCC1(N2CCOCC2)C2CCCC21CNc1ccccc1 (configuration not stated)
inactive: [2] > 100 µM | [3] > 100 µM | [4] > 100 µM | [17] > 100 µM | [5] > 100 µM | [6] > 100 µM | [7] 56.4 µM | [8] > 100 µM | [9] > 100 µM | [11] > 100 µM | [12] 61 µM | [13] > 100 µM | [14] 41.9 µM | [15] > 100 µM | [16] > 100 µM

NNC(=O)C1CCC(=O)N1S(=O)(=O)c1ccccc1 (configuration not stated)
inactive: [2] > 100 µM | [3] > 100 µM | [4] > 100 µM | [17] > 100 µM | [5] > 100 µM | [6] > 100 µM | [7] > 100 µM | [8] > 100 µM | [9] > 100 µM | [10] > 100 µM | [11] > 100 µM | [12] > 100 µM | [13] > 100 µM | [14] > 100 µM | [15] > 100 µM | [16] > 100 µM

Cn1cc(C(=O)c2ccccc2)c2ccccc2c1=O
inactive: [2] > 100 µM | [3] > 100 µM | [4] > 100 µM | [17] > 100 µM | [5] > 100 µM | [6] > 100 µM | [7] > 100 µM | [8] 89.3 µM | [9] > 100 µM | [10] > 100 µM | [11] > 100 µM | [12] > 100 µM | [13] 49.2 µM | [14] 62.8 µM | [15] 18.8 µM | [16] > 100 µM

CC(C)(C)C(=O)/C=C/c1cccc(Oc2ccccc2)c1
inactive: [1] 20 µM | [2] 10.5 µM | [3] 21.1 µM | [4] 13.6 µM | [17] 18.8 µM | [5] 13.2 µM | [6] 16 µM | [7] 15 µM | [8] 18.1 µM | [9] > 10 µM | [10] 41 µM | [11] 4.2 µM | [12] 19 µM | [15] 45 µM | [16] 11.6 µM
